The values that follow are results of earlier work, collected in paper PMC4484741 (Nuclear medicine and biology, 2011).

In one data set the test system is pancreatic BCM. As to conditions: rats, PET.
Another data set concerns the target GLP-1 receptor. The note with it: read-out: Kd, affinity to GLP-1 receptor.

Like-named read-outs stand apart in the source and are kept apart here.

Take “Exendin-4: 39-amino acid peptide hormone from Gila monster saliva, agonist of GLP-1 receptor”: the half-life in vivo entry is on record as “about 2.4 h”.
As for `COc1cc2c(cc1O[11CH3])CCN1CC(CC(C)C)C(O)CC21` (centres unmarked) [[^11C]DTBZ], the “Time within which liver and pancreas uptake rose to a plateau” value with pancreatic BCM is at most 15 min.
Broadly, the Kd is a measure of binding affinity in units of concentration. Consider “Exendin (9-39): truncated version of exendin-4, antagonist of GLP-1 receptor”, for which the dissociation constant (Kd) at GLP-1 receptor is about 3 nM.
As for `COc1cc2c(cc1OCCC[18F])CCN1C[C@@H](CC(C)C)[C@H](O)C[C@H]21` [[^18F]FP-DTBZ], in the data set with pancreatic BCM, the “Time within which liver and pancreas uptake rose to a plateau” value is at most 15 min.
As to “GLP-1: endogenous ligand of the GLP-1 receptor”, the half-life in vivo (fast degradation by dipeptidyl peptidase-4) is 1 to 2 min.
